Assay results published in patent US6548533B2, “Ureido substituted pyrrolidines” (Aventis Pharma Limited, priority 1999, dated 2003).

Row | SMILES | melting point
1 | COc1cc(CC(=O)Nc2ccc(C3CN(C(=O)CCC(=O)O)CC3C(=O)O)cc2)ccc1NC(=O)Nc1ccccc1C (centres unmarked) [Example 3, 1-(3-Carboxy-propionyl)-4-(4-{2-[3-methoxy-4-(3-o-tolyl-ureido)-phenyl]-acetylamino}-phenyl)-pyrrolidine-3-carboxylic Acid] | 184 °C
2 | COc1cc(CC(=O)Nc2ccc(C3CN(C(=O)c4ccccc4)CC3C(=O)O)cc2)ccc1NC(=O)Nc1ccccc1C (centres unmarked) [Example 2, 1-Benzoyl-4-(4-{2-[3-methoxy-4-(3-o-tolyl-ureido)-phenyl]-acetylamino}-phenyl)-pyrrolidine-3-carboxylic Acid] | 248 °C
3 | COc1cc(CC(=O)Nc2ccc(C3C(C(=O)O)CCN3C(=O)c3ccccc3)cc2)ccc1NC(=O)Nc1ccccc1C (centres unmarked) [Example 4, 1-Benzoyl-2-(4-{2-[3-methoxy-4-(3-o-tolyl-ureido)-phenyl]-acetylamino}-phenyl)-pyrrolidine-3-carboxylic Acid] | 155 °C (dec.)
4 | COc1cc(CC(=O)Nc2ccc(C3CN(C(C)=O)CC3C(=O)O)cc2)ccc1NC(=O)Nc1ccccc1C (centres unmarked) [Example 1, 1-Acetyl-4-(4-{2-[3-methoxy-4-(3-o-tolyl-ureido)-phenyl]-acetylamino}-phenyl)-pyrrolidine-3-carboxylic Acid] | 242 °C
5 | COc1cc(CC(=O)Nc2ccc(C3CN(Cc4ccccc4)CC3C(=O)O)cc2)ccc1NC(=O)Nc1ccccc1C (centres unmarked) [Example 5, 1-Benzyl-4-(4-{2-[3-methoxy-4-(3-o-tolyl-ureido)-phenyl]-acetylamino}-phenyl)-pyrrolidine-3-carboxylic Acid] | 255 °C
